MIC and ED5O data for 4 compounds are collected here from US7030085B2, “Thiopeptide compounds” (Astellas Pharma INC, priority 2001, dated 2006).

A word on the MIC: it is the smallest concentration in the dilution series that meets the test's criterion for growth inhibition. Lower therefore signals a more susceptible organism.

Assay [1] has as its system Enterococcus faecium CAY09—2 (VRE). The assay is described as follows: MIC determination, standard method of the Chemotherapy Society of Japan. Type of assay: cell-based. From the text:
(§1) The minimal inhibitory concentration (MIC) of the compounds of the invention obtained in Example 1, QN3323A, QN3323-B, QN3323-Y1, thiocillin I, thiocillin II and micrococcin P2 against Staphylococcus aureus FDA209P (S. aureus), Staphylococcus epidermidis IID866 (S. epidezmidis), Enterococcus faecalis IID682 (E. Faecalis) and Enterococcus faecium CAY09—1 (E. faecium), as well as against drug-resistant bacteria, Staphylococcus aureus CAY32001 (MRSA) (S. aureus (MRSA)) and Enterococcus faecium CAY09—2 (VRE) (E. faecium (VRE)) was measured according to the standard method of the Chemotherapy Society of Japan (CHEMOTHERAPY, 1981, 29(1):76, revised minimal inhibitory concentration (MIC) determination method). The cells of S. aureus (MRSA) were incubated at 32° C.

In assay [2] the test system is Staphylococcus aureus CAY32001 (MRSA). The assay is described as above. Type of assay: cell-based.
Source text: as §1

Assay [3] relates to Enterococcus faecium CAY09—1. Described as above. Type of assay: cell-based.
Source text: as §1

In assay [4] the test system is Enterococcus faecalis IID682. The description is as above. The class given is cell-based.
Source text: as §1

Assay [5] deals with Staphylococcus epidermidis IID866. Described as above. Type of assay: cell-based.
Source text: as §1

Assay [6] concerns Staphylococcus aureus FDA209P. The description is as above. Type of assay: cell-based.
Source text: as §1

For assay [7], the system named is Staphylococcus aureus Smith. The assay is described as follows: Remedial effect for infected mouse model. The class given is in vivo. The following applies: male ICR(CD-1) mice infected intraabdominally with S. aureus Smith; compound subcutaneous two hours after infection; observed 4 to 7 days after treatment; probit method. On the procedure: Remedial Effect for Infected Mouse Model
The compounds of the invention, QN3323-A, QN3323-B, thiocillin I and thiocillin II were tested using an infected mouse model to determine the effectivness thereof. Concretely, cells of Staphylococcus aureus Smith cultivated for 16 hours at 37° C. were suspended in 3% butamutin (by Tokyo Kasei), and the resulting cell suspension was intraabdominally infected into 4-week old male ICR(CD-1) mice (from Charles River of Japan, SPF) (about 3×10^6 CFU/mouse). Two hours after the infection, the compound of the invention dissolved in a solvent (10% DMSO, 10% HCO-60 (by Nikko Chemicals), 80% physiological saline), was subcutaneously administered to each mouse. On 4 to 7 days after the treatment, the mice were observed, and their ED50 value was calculated according to probit method.

Setting [8] is: S. aureus CAY32001 (MRSA), incubated at 32° C.

Converted amounts (≈) assume the structure as drawn.

As to `C/C=C(\NC(=O)c1csc(-c2csc(-c3ccc4c(n3)-c3csc(n3)[C@H]([C@@H](C)O)NC(=O)c3csc(n3)[C@H](C(C)C)NC(=O)c3csc(n3)/C(=C/C)NC(=O)[C@H]([C@@H](C)O)NC(=O)c3csc-4n3)n2)n1)C(=O)NCC(C)=O` [Micrococcin P2, micrococcin P2], the MIC in assay [1] (E. faecium CAY09—2 (VRE)) was 0.2 µg/mL (≈ 0.175 µM); in assay [2] (setting [8]), 0.78 µg/mL (≈ 0.683 µM).

With `C/C=C(\NC(=O)c1csc(-c2csc(-c3ccc4c(n3)-c3csc(n3)C(C(C)O)NC(=O)c3csc(n3)C(C(C)(C)O)NC(=O)c3csc(n3)/C(=C\C)NC(=O)C(C(C)O)NC(=O)c3csc-4n3)n2)n1)C(=O)NCC(C)O` (centres unmarked) [QN3323-Y1], the MIC in assay [3] was determined as 0.5 µg/mL (≈ 0.431 µM); in assay [4], 0.5 µg/mL (≈ 0.431 µM); in assay [1] (Enterococcus faecium, VRE), 0.25 µg/mL (≈ 0.215 µM); in assay [2] (Staphylococcus aureus, MRSA), 2 µg/mL (≈ 1.72 µM); in assay [5], 0.25 µg/mL (≈ 0.215 µM); in assay [6], 0.25 µg/mL (≈ 0.215 µM).

The compound `C/C=C(\NC(=O)c1csc(-c2csc(-c3ccc4c(n3)-c3csc(n3)[C@H]([C@@H](C)O)NC(=O)c3csc(n3)[C@H](C(C)(C)O)NC(=O)c3csc(n3)/C(=C/C)NC(=O)[C@H]([C@@H](C)O)NC(=O)c3csc-4n3)n2)n1)C(=O)NC[C@@H](C)O` [Thiocillin I, thiocillin I] registered an ED5O in assay [7] of 1.4 mg/kg. In addition, the MIC in assay [1] (E. faecium CAY09—2 (VRE)) and in assay [2] (setting [8]) was 0.78 µg/mL (≈ 0.672 µM) in each case.

`C/C=C(/NC(=O)c1csc(-c2csc(-c3ccc4c(n3)-c3csc(n3)C(C(C)OC)NC(=O)c3csc(n3)C(C(C)(C)O)NC(=O)c3csc(n3)/C(=C\C)NC(=O)C(C(C)O)NC(=O)c3csc-4n3)n2)n1)C(=O)NCC(C)O` (centres unmarked) [Thiocillin II, thiocillin II] displayed an ED5O in assay [7] of 2.2 mg/kg. Besides, the MIC came out at 0.05 µg/mL (≈ 0.0426 µM) in assay [1] (E. faecium CAY09—2 (VRE)) and 0.10 µg/mL (≈ 0.0851 µM) in assay [2] (setting [8]).
